Source: a melting point compilation (Tetko et al.; mined from patent text by program, amines drawn as free bases though some values may be those of a salt)

Compound	melting point
CC(C)c1cc(CCC(=O)O)n(Cc2ccc(C(F)(F)F)cc2Cl)n1	117 to 119 °C
Cc1cc(Cl)cc(NC(=O)Cc2ccc(O)cc2)c1	176 to 178 °C
OC1(C2CCNCC2)CC(c2ccc(F)cc2)c2ccc(F)cc21 (centres undefined)	198 °C
CCCc1nc2c(N)nc3ccccc3c2n1CC(C)(C)CC(C)=NOC	196 to 198 °C
CN(C)S(=O)(=O)c1cc(-c2csc(=Nc3ccccc3)n2C)ccc1Cl	180 °C
CC(=O)c1ccc(CNC(=O)OC(C)(C)C)cc1	73 to 75 °C
O=C1c2ccccc2C(=O)c2oc(-c3cccs3)nc21	> 260 °C
O=Cc1ccc(CN2C(=O)c3ccccc3C2=O)c(Cl)c1	123 to 126 °C
CC(=O)c1[nH]c(C)nc1C	83 to 87 °C
CC(C)C(=O)N[C@@H](CSC(=O)C(C)(C)C)C(=O)NCCSC(=O)c1ccccc1	112 to 114 °C
COc1cc2c(cc1-c1nocc1-c1ccccc1C#N)C(C)(C)CCC2(C)C	202 to 203 °C
O=C(O)c1ccc2cccc(Br)c2c1	265 to 266 °C
CN(CCCc1nc2ccccc2[nH]1)C(=O)OCc1ccccc1	83 to 86 °C
N#CCN1CCN(c2cccc(Cl)c2Cl)CC1	89 to 92 °C
CS(=O)(=O)N1CCCn2c(nc3c(N)nc4cc(Br)ccc4c32)C1	303 °C
CC(C)(C)OC(=O)NC(C(=O)OCC(=O)c1ccccc1)c1ccc(OCC(=O)c2ccccc2)cc1 (centres undefined)	125 to 126 °C
Cc1oc(C(C)(C)C)nc1CCl	41 to 44 °C
CC(=O)Oc1c(Sc2ccccc2)sc2ccccc12	88 to 90 °C
OCCCc1cn(-c2ccc(F)cc2)c2ccc(Cl)cc12	67 to 69 °C
Clc1cccc2c1Nc1ccccc1N=C2N1CCN(Cc2ccc3c(c2)OCO3)CC1	160 to 162 °C
COC(=O)c1ccc2c(c1)Sc1cc3c(cc1CC2)CCC3	110 to 111 °C

Compound	melting point
CCOC(=O)N1CCN(c2nc(=O)c3cccnc3s2)CC1	139 to 140 °C
CC(C)(C)c1ccc(C=C(CCCCCC2CCCCC2)COCc2ccccc2)cc1NC(=O)CC1c2ccccc2Oc2ccccc21	110 °C
O=C(O)c1cn(-c2ccc(F)cc2)c2c(F)c(N3CCCC3)c(F)cc2c1=O	282 to 284 °C
CCNC1=NS(=O)(=O)c2sc(Cl)cc2N1	271 to 274 °C
CN1C(=O)C2(COc3cc4c(cc32)OCCO4)c2c(Oc3ccc(F)cc3)cccc21 (centres undefined)	151 to 153 °C
CCCc1cccn1NS(=O)(=O)C1CCCC=C1C(=O)OCC (centres undefined)	66 to 68 °C
CC(=O)N1CCC(N(C)S(C)(=O)=O)CC1	132 °C
Cc1cccc(C=NNc2nc(OCCc3ccccn3)nc(N3CCOCC3)n2)c1	143 to 147 °C
N#Cc1ccc(OCCCCOc2ccc(-c3cc4cc(C#N)ccc4o3)cc2)cc1	186 to 188 °C
O=C(Cc1ccc(Cl)cc1)Nc1ccc(O)cc1O	178 to 179 °C
O=C(O)c1ccc(C(=O)O)c(-c2nc3ccccc3s2)c1	287 to 288 °C
Cc1ccc(-c2nc(C(N)=O)cs2)cc1	100 to 102 °C
CCCCCCCCCCCCCCCCOC(=O)OC(C)=CC(C)=O	33 to 35 °C
C#CCCCOc1c(C)cc(C(=O)O)cc1C	129 to 130 °C
COc1cc(C(=O)Nc2c(Cl)cc3c(Br)n[nH]c3c2C(=O)NC(C)C)n(-c2ncccc2Cl)n1	217 to 218 °C
CN(C)c1ccc([N+](=O)[O-])c(C(O)c2ccccc2)c1 (centres undefined)	95 to 97 °C
NNc1c(F)cc(Cl)c2nc(Cl)sc12	162 to 180 °C
CC/C=C\CCC(C#N)(C#N)Cc1ccc(Cl)cc1	44.8 °C
CN(C)C(=O)C1CCc2c([nH]c3ccc(Cl)cc23)C1 (centres undefined)	176 to 177 °C
CC(C)CC[C@H](O)[C@H](CC1CCCCC1)NC(=O)[C@H](Cc1c[nH]cn1)NC(=O)OC(C)(C)C	96 to 100 °C
Cc1ccc(O)c2[nH]c(Cc3cccnc3)nc12	264 to 268 °C

Compound	melting point
CCCc1c(OCc2cccc(C(=O)OCC)c2OCC)ccc(C(C)=O)c1O	59 to 62 °C
CCOC(=O)NCc1cccc(-c2ccnc3c(C#N)cnn23)c1	140 to 142 °C
O=c1cc(-c2ccccc2)oc2ccc(OCCCCCCCCN3CCC(O)CC3)cc12	57 to 58 °C
Cc1ccc2c(c1)NC(=O)C(NC(=O)Nc1cccc(Cl)c1)CC2C1CCCCC1 (centres undefined)	162 to 169 °C
Cc1ccnc(C(=O)c2[nH]c3ccc(Cl)cc3c2CC(=O)O)c1C	236 to 237 °C
COc1cc(C(=O)O)ccc1Cn1nc(OC)c2ccc(NC(=O)OC3CCCC3)cc21	199 to 200 °C
CC(C)(C)OC(=O)[C@H](NS(=O)(=O)c1ccc2c(Cl)cnc(Cl)c2c1)C(C)(C)C	140 to 142 °C
CC(C)NC(=S)N1CCc2nc(N)sc2C1	179 to 180 °C
OC(c1ccc2c(c1)CCN2)(C(F)F)C(F)F	130 to 134 °C
Cn1cc(C(=O)Nc2ccccc2-c2ccc(Cl)cc2Cl)c(C(F)(F)F)n1	136 to 140 °C
CSc1cc(-c2ccccc2)ccc1C1=NC(C)(C)CO1	93 to 95 °C
CC(=O)Nc1cccc2c(=O)[nH]c3ccccc3c(=O)c12	270 to 272 °C
CC(O)(C(N)=O)c1ccc(OS(=O)(=O)C(F)(F)F)cc1 (centres undefined)	105 to 107 °C
CNS(=O)(=O)c1sc(C)cc1CC(=O)O	138 °C
CCOC(=O)c1ccc(N2Cc3ccccc3C2=O)cc1	182 to 184 °C
C=CCOc1ccc2ccc(OCC(=O)OC)cc2c1	69 to 70 °C
O=C(O)[C@H](CCc1ccccc1)NS(=O)(=O)c1ccc2c(c1)sc1ccccc12	210 to 212 °C
Cc1nc2c3c(c(C(=O)N4CC(O)C4)cc2n1C)CCC1(Cc2ccccc2C1)N3	171 to 172 °C
CC(=O)OC1C(OC(=O)c2ccccc2)C=C(C)C(=O)CC1(C)C (centres undefined)	94 to 95 °C
Cc1nc2ccccc2nc1S(=O)Cc1ccccc1N(C)C (centres undefined)	68 to 70 °C
COC(=O)c1ccc(F)cc1C#N	92 to 93 °C

Further lines, results first:

melting point	Compound
127 to 129 °C	CC1(O)OC(=O)C(c2c(F)cc(F)cc2F)=C1Cc1ccc(Cl)cc1 (centres undefined)
142 to 144 °C	Cc1cc(OCC(=O)O)c2c(c1C)-c1nc(SCCC(c3ccccc3)c3ccccc3)sc1C2
88 to 90 °C	CS(=O)c1ccc(Oc2ccc(Cl)c(Cl)c2)nc1 (centres undefined)
226 to 227 °C	COc1cc(Cl)nnc1NS(=O)(=O)c1cccc(Cl)c1Cl
174 to 175 °C	COc1ccc(C(=O)Nc2ccccc2)cc1NC(=S)Nc1ccc(Cl)c(Cl)c1
202 to 204 °C	CC(C)(C)c1cc(-c2noc(N)n2)cc(C(C)(C)C)c1O
105 °C	COCc1cc2c(N)cccc2cn1
110 °C	CC(=CCc1c(C)c(N=Nc2ccc([N+](=O)[O-])cc2[N+](=O)[O-])c2ccccc2c1O)CCCC(C)CCCC(C)CCCC(C)C (centres undefined)
127 to 129 °C	COc1ccc(C(C)=O)c(OCCCC(=O)O)c1
89 °C	CCCCNC(=O)N(C)c1cccc(-c2ccc(C=C(OC)C(=O)OC)cc2)c1
262 to 266 °C	Cc1cccc2c1c(N1CCOCC1)nc1c(-c3nc(C4CC4)no3)ncn12
172 to 173 °C	COc1ccc(-c2nc3n(c2-c2ccccc2)Cc2ccccc2C3)cc1
73 to 74 °C	COc1ccc2c(n1)c(CCNC(C)=O)c1n2CCCc2ccccc2-1
145 to 146 °C	CC(=O)OCC1OC(n2c(Cl)nc3cc(Cl)c(Cl)cc32)C(OC(C)=O)C1OC(C)=O (centres undefined)
137 to 139 °C	CNC(C)CN1CCc2c(c(=O)oc3cc(OC)c(OC)cc23)C1 (centres undefined)
102 °C	CC(=O)Oc1cc2c(cc1OC(C)=O)OCC(c1ccccc1)C2 (centres undefined)
114 to 115 °C	COc1cc2c(c(OC)c1OC)C(=O)CC2
164 to 166 °C	N[C@@H](C[C@@H](CC#Cc1ccccc1)C(=O)O)C(=O)O
182 °C	CCOC(=O)C1=C(N)NC(C)=C(C(=O)O)C1c1ccccc1-c1ccccc1 (centres undefined)
102 °C	Nc1ncc(-c2ccccc2COC2CCCCC2)s1
159 to 161 °C	Cc1c(C)c2c(c(C)c1O)C(c1ccc(N3CCN(C)CC3)cc1)C(C)(C)O2 (centres undefined)

melting point	Compound
108 °C	COc1cc(C=Cc2ccccc2)cc(OC)c1OC
107 °C	COc1ccc(Oc2ccc(C(=O)N(C(C)C)C3CCCCC3)cc2)cc1OC
124 to 126 °C	O=C1c2ccccc2C(=O)N1CCCCCCc1cncnc1
106 to 108 °C	CC(C(N)=O)c1ccc(Oc2ccccc2F)cc1 (centres undefined)
85 to 87 °C	C=CCOCC(O)CN1CCN(c2nc(-c3ccccc3)nc3ccccc23)CC1 (centres undefined)
140 to 141 °C	CCCCCS(=O)(=O)NC(=O)/C=C/c1ccc(OCCOC)cc1NC(=O)c1ccc(F)cc1F
132 to 133 °C	CC(C)NC(=O)NC(=O)c1ccnc([N+](=O)[O-])c1
199 °C	CCCCS(=O)(=O)Cc1ccc(C(=O)Nc2ccc3cc(CN4CCCC4)cnc3c2C)cc1
32 to 34 °C	CN(C)Cc1cc(OCCCO)cs1
116 to 117 °C	Cc1ccc(S(=O)(=O)NCc2ccc(C(=O)CBr)cc2)cc1
90 to 92 °C	Cc1cc(C2(C(F)(F)F)CC(c3ccc(Cl)cc3)=NN2C)ccc1NC(=O)c1cccc(I)c1C(=O)NC(C)C (centres undefined)
168 to 170 °C	O=S(=O)(O)NCc1cc(I)cc(I)c1O
96 to 98 °C	COc1ccccc1NS(=O)(=O)c1ccc([N+](=O)[O-])cc1
162 to 164 °C	COC(=O)c1c(C(=O)OC)c2n(c1C)-c1ccccc1C2
125 °C	FC(F)Oc1n[nH]cc1-c1ccccc1
278 to 279 °C	CC1(C)Oc2c(cc(Cl)c3oc(C(=O)O)cc(=O)c23)-c2ccc([N+](=O)[O-])cc21
168 to 170 °C	CC(C)(C)OC(=O)n1cccc1-c1ccc2c(c1)C(C)(C)C(=O)N2
208 to 210 °C	COc1ccc(N2CCCn3c2nc2c(Cl)ccc(C(O)(C4CC4)C4CC4)c23)c(C)n1
135 to 136 °C	CCCCOc1ccc(OCCN2CCN(c3cc(Cl)nnc3Cl)CC2)cc1
290 to 291 °C	Cc1[nH]c(=O)c(C#N)cc1-c1ccc(S(C)=O)cc1 (centres undefined)
